Test results from patent US11236129B2, “IL-17A binding peptides and medical uses thereof” (Dompe' Farmaceutici S.P.A., priority 2018, dated 2022).
Residues, ends and D or L forms follow the SMILES beside them.

Biological target: IL-17RA/IL17RC dimerization induced by IL-17A (Homo sapiens, UniProt Q16552)
Test: IL-17RA/IL17RC dimerization assay in response to IL-17A (PathHunter Cytokine Receptor Assay)
Type: cell-based
Details: IL-17A at EC80; read-out: IC50 in IL-17RA/IL7RC dimerization assay
Method in brief: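 Receptor dimerization was read as chemiluminescence from complemented β-galactosidase after IL-17A at EC80 concentration for 6–16 h at 37 °C. Peptides were added 60 min before agonist, at 37 °C or room temperature, with 1% vehicle. Percent inhibition used the EC80-stimulated and vehicle wells as references.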

Chain of IL-17RA/IL17RC dimerization induced by IL-17A (Q16552 24-155): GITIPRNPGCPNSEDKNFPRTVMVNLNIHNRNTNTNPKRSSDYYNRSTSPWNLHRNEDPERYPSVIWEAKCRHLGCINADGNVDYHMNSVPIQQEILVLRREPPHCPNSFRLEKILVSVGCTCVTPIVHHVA

SMILES | IC50 [µM]
CC(=O)N[C@H](C(=O)N[C@@H](CCCNC(=N)N)C(=O)N[C@@H](Cc1ccccc1)C(=O)N[C@@H](CCC(N)=O)C(=O)N[C@@H](Cc1ccccc1)C(=O)NCC(=O)N[C@@H](CCC(N)=O)C(=O)N[C@@H](CCC(=O)O)C(=O)N[C@@H](Cc1c[nH]c2ccccc12)C(=O)N[C@@H](Cc1ccc(O)cc1)C(=O)N[C@@H](CC(N)=O)C(=O)N[C@@H](Cc1ccccc1)C(=O)N[C@@H](Cc1ccccc1)C(=O)N[C@@H](CCCNC(=N)N)C(=O)N[C@@H](CCCNC(=N)N)C(N)=O)C(C)C [SEQ ID NO: 155] (Ac-VRFQFGQEWYNFFRR-NH2) | < 0.5
CC[C@H](C)[C@H](NC(=O)[C@@H](NC(=O)[C@@H](NC(=O)[C@H](Cc1c[nH]cn1)NC(=O)[C@@H](NC(=O)CNC(=O)[C@H](C)NC(=O)CNC(=O)[C@@H]1CCCN1C(=O)[C@@H](NC(=O)CNC(=O)[C@H](C)NC(=O)CNC(=O)[C@@H]1CCCN1C(=O)[C@@H](NC(C)=O)C(C)C)C(C)C)[C@@H](C)CC)C(C)C)[C@@H](C)O)C(N)=O [SEQ ID NO: 156] (Ac-VPGAGVPGAGIHVTI-NH2) | < 0.5
CC[C@H](C)[C@H](NC(=O)CNC(=O)[C@H](C)NC(=O)CNC(=O)[C@@H]1CCCN1C(=O)[C@@H](NC(=O)CNC(=O)[C@H](C)NC(=O)CNC(=O)[C@@H]1CCCN1C(=O)[C@@H](NC(C)=O)C(C)C)C(C)C)C(=O)N[C@@H](Cc1c[nH]cn1)C(=O)N[C@H](C(=O)N[C@H](C(=O)N[C@H](C(=O)N1CCC[C@H]1C(=O)N[C@@H](C)C(N)=O)[C@@H](C)CC)[C@@H](C)O)C(C)C [SEQ ID NO: 157] (Ac-VPGAGVPGAGIHVTIPA-NH2) | < 0.5
CC[C@H](C)[C@H](NC(=O)[C@H](Cc1c[nH]c2ccccc12)NC(=O)[C@H](CC(=O)O)NC(=O)[C@H](Cc1c[nH]c2ccccc12)NC(=O)[C@H](CC(C)C)NC(=O)[C@H](CC(=O)O)NC(=O)[C@H](C)NC(=O)[C@@H]1CCCN1C(=O)[C@@H](NC(=O)[C@@H](NC(=O)[C@@H](NC(=O)[C@H](Cc1c[nH]cn1)NC(=O)[C@H](C)NC(C)=O)C(C)C)[C@@H](C)O)[C@@H](C)CC)C(=O)N[C@@H](CC(N)=O)C(=O)N[C@@H](CCCCN)C(N)=O [SEQ ID NO: 158] (Ac-AHVTIPADLWDWINK-NH2) | < 10
CC[C@H](C)[C@H](NC(=O)[C@H](Cc1c[nH]c2ccccc12)NC(=O)[C@H](CC(=O)O)NC(=O)[C@H](Cc1c[nH]c2ccccc12)NC(=O)[C@H](CC(C)C)NC(=O)[C@H](CC(=O)O)NC(=O)[C@H](C)NC(=O)[C@@H]1CCCN1C(=O)[C@@H](NC(=O)[C@@H](NC(=O)[C@@H](NC(=O)[C@H](Cc1c[nH]cn1)NC(=O)CNC(C)=O)C(C)C)[C@@H](C)O)[C@@H](C)CC)C(=O)N[C@@H](CC(N)=O)C(=O)N[C@@H](CCCCN)C(N)=O [SEQ ID NO: 159] (Ac-GHVTIPADLWDWINK-NH2) | < 10
CC[C@H](C)[C@H](NC(=O)[C@H](Cc1c[nH]c2ccccc12)NC(=O)[C@H](CC(=O)O)NC(=O)[C@H](Cc1c[nH]c2ccccc12)NC(=O)[C@H](CC(C)C)NC(=O)[C@H](CC(=O)O)NC(=O)[C@H](C)NC(=O)[C@@H]1CCCN1C(=O)[C@@H](NC(=O)[C@@H](NC(=O)[C@@H](NC(=O)[C@H](Cc1c[nH]cn1)NC(=O)[C@H](CC(C)C)NC(C)=O)C(C)C)[C@@H](C)O)[C@@H](C)CC)C(=O)N[C@@H](CC(N)=O)C(=O)N[C@@H](CCCCN)C(N)=O [SEQ ID NO: 160] (Ac-LHVTIPADLWDWINK-NH2) | < 10
CC[C@H](C)[C@H](NC(=O)[C@H](Cc1c[nH]c2ccccc12)NC(=O)[C@H](CC(=O)O)NC(=O)[C@H](Cc1c[nH]c2ccccc12)NC(=O)[C@H](CC(C)C)NC(=O)[C@H](CC(=O)O)NC(=O)[C@H](C)NC(=O)[C@@H]1CCCN1C(=O)[C@@H](NC(=O)[C@@H](NC(=O)[C@@H](NC(=O)[C@H](Cc1c[nH]cn1)NC(=O)[C@@H]1CCCN1C(C)=O)C(C)C)[C@@H](C)O)[C@@H](C)CC)C(=O)N[C@@H](CC(N)=O)C(=O)N[C@@H](CCCCN)C(N)=O [SEQ ID NO: 161] (Ac-PHVTIPADLWDWINK-NH2) | < 10
CC[C@H](C)[C@H](NC(C)=O)C(=O)N[C@@H](CCCNC(=N)N)C(=O)N[C@H](C(=O)N[C@H](C(=O)N[C@H](C(=O)N1CCC[C@H]1C(=O)N[C@@H](C)C(=O)N[C@@H](CC(=O)O)C(=O)N[C@@H](CC(C)C)C(=O)N[C@@H](Cc1c[nH]c2ccccc12)C(=O)N[C@@H](CC(=O)O)C(=O)N[C@@H](Cc1c[nH]c2ccccc12)C(=O)N[C@H](C(=O)N[C@@H](CC(N)=O)C(=O)N[C@@H](CCCCN)C(N)=O)[C@@H](C)CC)[C@@H](C)CC)[C@@H](C)O)C(C)C [SEQ ID NO: 162] (Ac-IRVTIPADLWDWINK-NH2) | < 10
CC[C@H](C)[C@H](NC(C)=O)C(=O)N[C@@H](CCCCN)C(=O)N[C@H](C(=O)N[C@H](C(=O)N[C@H](C(=O)N1CCC[C@H]1C(=O)N[C@@H](C)C(=O)N[C@@H](CC(=O)O)C(=O)N[C@@H](CC(C)C)C(=O)N[C@@H](Cc1c[nH]c2ccccc12)C(=O)N[C@@H](CC(=O)O)C(=O)N[C@@H](Cc1c[nH]c2ccccc12)C(=O)N[C@H](C(=O)N[C@@H](CC(N)=O)C(=O)N[C@@H](CCCCN)C(N)=O)[C@@H](C)CC)[C@@H](C)CC)[C@@H](C)O)C(C)C [SEQ ID NO: 163] (Ac-IKVTIPADLWDWINK-NH2) | < 10
CC[C@H](C)[C@H](NC(C)=O)C(=O)N[C@@H](CCC(=O)O)C(=O)N[C@H](C(=O)N[C@H](C(=O)N[C@H](C(=O)N1CCC[C@H]1C(=O)N[C@@H](C)C(=O)N[C@@H](CC(=O)O)C(=O)N[C@@H](CC(C)C)C(=O)N[C@@H](Cc1c[nH]c2ccccc12)C(=O)N[C@@H](CC(=O)O)C(=O)N[C@@H](Cc1c[nH]c2ccccc12)C(=O)N[C@H](C(=O)N[C@@H](CC(N)=O)C(=O)N[C@@H](CCCCN)C(N)=O)[C@@H](C)CC)[C@@H](C)CC)[C@@H](C)O)C(C)C [SEQ ID NO: 164] (Ac-IEVTIPADLWDWINK-NH2) | < 10
CC[C@H](C)[C@H](NC(C)=O)C(=O)N[C@@H](CCC(N)=O)C(=O)N[C@H](C(=O)N[C@H](C(=O)N[C@H](C(=O)N1CCC[C@H]1C(=O)N[C@@H](C)C(=O)N[C@@H](CC(=O)O)C(=O)N[C@@H](CC(C)C)C(=O)N[C@@H](Cc1c[nH]c2ccccc12)C(=O)N[C@@H](CC(=O)O)C(=O)N[C@@H](Cc1c[nH]c2ccccc12)C(=O)N[C@H](C(=O)N[C@@H](CC(N)=O)C(=O)N[C@@H](CCCCN)C(N)=O)[C@@H](C)CC)[C@@H](C)CC)[C@@H](C)O)C(C)C [SEQ ID NO: 165] (Ac-IQVTIPADLWDWINK-NH2) | < 10
CC[C@H](C)[C@H](NC(C)=O)C(=O)N[C@@H](Cc1ccc(O)cc1)C(=O)N[C@H](C(=O)N[C@H](C(=O)N[C@H](C(=O)N1CCC[C@H]1C(=O)N[C@@H](C)C(=O)N[C@@H](CC(=O)O)C(=O)N[C@@H](CC(C)C)C(=O)N[C@@H](Cc1c[nH]c2ccccc12)C(=O)N[C@@H](CC(=O)O)C(=O)N[C@@H](Cc1c[nH]c2ccccc12)C(=O)N[C@H](C(=O)N[C@@H](CC(N)=O)C(=O)N[C@@H](CCCCN)C(N)=O)[C@@H](C)CC)[C@@H](C)CC)[C@@H](C)O)C(C)C [SEQ ID NO: 166] (Ac-IYVTIPADLWDWINK-NH2) | < 10
CC[C@H](C)[C@H](NC(C)=O)C(=O)N[C@@H](Cc1c[nH]cn1)C(=O)N[C@@H](C)C(=O)N[C@H](C(=O)N[C@H](C(=O)N1CCC[C@H]1C(=O)N[C@@H](C)C(=O)N[C@@H](CC(=O)O)C(=O)N[C@@H](CC(C)C)C(=O)N[C@@H](Cc1c[nH]c2ccccc12)C(=O)N[C@@H](CC(=O)O)C(=O)N[C@@H](Cc1c[nH]c2ccccc12)C(=O)N[C@H](C(=O)N[C@@H](CC(N)=O)C(=O)N[C@@H](CCCCN)C(N)=O)[C@@H](C)CC)[C@@H](C)CC)[C@@H](C)O [SEQ ID NO: 167] (Ac-IHATIPADLWDWINK-NH2) | < 10
CC[C@H](C)[C@H](NC(C)=O)C(=O)N[C@@H](Cc1c[nH]cn1)C(=O)NCC(=O)N[C@H](C(=O)N[C@H](C(=O)N1CCC[C@H]1C(=O)N[C@@H](C)C(=O)N[C@@H](CC(=O)O)C(=O)N[C@@H](CC(C)C)C(=O)N[C@@H](Cc1c[nH]c2ccccc12)C(=O)N[C@@H](CC(=O)O)C(=O)N[C@@H](Cc1c[nH]c2ccccc12)C(=O)N[C@H](C(=O)N[C@@H](CC(N)=O)C(=O)N[C@@H](CCCCN)C(N)=O)[C@@H](C)CC)[C@@H](C)CC)[C@@H](C)O [SEQ ID NO: 168] (Ac-IHGTIPADLWDWINK-NH2) | < 10
CC[C@H](C)[C@H](NC(C)=O)C(=O)N[C@@H](Cc1c[nH]cn1)C(=O)N[C@@H](CC(C)C)C(=O)N[C@H](C(=O)N[C@H](C(=O)N1CCC[C@H]1C(=O)N[C@@H](C)C(=O)N[C@@H](CC(=O)O)C(=O)N[C@@H](CC(C)C)C(=O)N[C@@H](Cc1c[nH]c2ccccc12)C(=O)N[C@@H](CC(=O)O)C(=O)N[C@@H](Cc1c[nH]c2ccccc12)C(=O)N[C@H](C(=O)N[C@@H](CC(N)=O)C(=O)N[C@@H](CCCCN)C(N)=O)[C@@H](C)CC)[C@@H](C)CC)[C@@H](C)O [SEQ ID NO: 169] (Ac-IHLTIPADLWDWINK-NH2) | < 10
CC[C@H](C)[C@H](NC(C)=O)C(=O)N[C@@H](Cc1c[nH]cn1)C(=O)N1CCC[C@H]1C(=O)N[C@H](C(=O)N[C@H](C(=O)N1CCC[C@H]1C(=O)N[C@@H](C)C(=O)N[C@@H](CC(=O)O)C(=O)N[C@@H](CC(C)C)C(=O)N[C@@H](Cc1c[nH]c2ccccc12)C(=O)N[C@@H](CC(=O)O)C(=O)N[C@@H](Cc1c[nH]c2ccccc12)C(=O)N[C@H](C(=O)N[C@@H](CC(N)=O)C(=O)N[C@@H](CCCCN)C(N)=O)[C@@H](C)CC)[C@@H](C)CC)[C@@H](C)O [SEQ ID NO: 170] (Ac-IHPTIPADLWDWINK-NH2) | < 10
CC[C@H](C)[C@H](NC(C)=O)C(=O)N[C@@H](Cc1c[nH]cn1)C(=O)N[C@H](C(=O)N[C@H](C(=O)N[C@H](C(=O)N1CCC[C@H]1C(=O)N[C@@H](C)C(=O)N[C@@H](CC(=O)O)C(=O)N[C@@H](CC(C)C)C(=O)N[C@@H](Cc1c[nH]c2ccccc12)C(=O)N[C@@H](CC(=O)O)C(=O)N[C@@H](Cc1c[nH]c2ccccc12)C(=O)N[C@H](C(=O)N[C@@H](CC(N)=O)C(=O)N[C@@H](CCCCN)C(N)=O)[C@@H](C)CC)[C@@H](C)CC)[C@@H](C)O)[C@@H](C)CC [SEQ ID NO: 171] (Ac-IHITIPADLWDWINK-NH2) | < 10
